According to patent publication US10981891B2, “Antibacterial compounds and uses thereof” (priority 2016, dated 2021):
Converted amounts (≈) assume the structure as drawn.

test system: M. tuberculosis H37Rv (ATCC 27294); test: Microplate Alamar Blue assay (MABA), MIC against replicating M. tuberculosis H37Rv; assay type: cell-based; conditions: Mycobacterium tuberculosis, 168 h, read-out: M. tuberculosis MIC

How did the MIC turn out when `COc1nc2ccc(Br)cc2cc1C(c1ccccc1)C(O)(CCN(C)C)c1cccc2c1CCC2` (stereo not shown) [Example 40, 1-(6-Bromo-2-methoxyquinolin-3-yl)-2-(2,3-dihydro-1H-inden-4-yl)-4-(dimethylamino)-1-phenylbutan-2-ol] was run?
The MIC was 0.07 µg/mL (≈ 0.128 µM).

How did the MIC turn out when `COc1nc2ccc(Br)cc2cc1C(c1ccccc1)C(O)(CCN(C)C)c1cccc2ccsc12` (stereo not shown) [Example 15, 2-(Benzo[b]thiophen-7-yl)-1-(6-bromo-2-methoxyquinolin-3-yl)-4-(dimethylamino)-1-phenylbutan-2-ol] was run?
The MIC was 0.02 µg/mL (≈ 0.0356 µM).

same assay, conditions: Mycobacterium tuberculosis, 168 h; H37Rv, MABA, 7H12 media, 7 days at 37° C.; MIC = lowest concentration reducing fluorescence by 90% relative to controls; read-out: M. tuberculosis MIC

With `CCOc1cc(C(c2cc3cc(Br)ccc3nc2OC)C(O)(CCN(C)C)c2cccc3ccoc23)cc(OCC)n1` (stereo not shown) [Example 12, 2-(Benzofuran-7-yl)-1-(6-bromo-2-methoxyquinolin-3-yl)-1-(2,6-diethoxypyridin-4-yl)-4-(dimethylamino)butan-2-ol] as the molecule, how does the MIC read?
Its MIC is under 0.01 µg/mL.

For `COc1cc(C(O)(CCN(C)C)C(c2ccc(C)s2)c2cc3cc(C#N)ccc3nc2OC)cc(OC)n1` (stereo not shown) [Example 75, 3-(2-(2,6-Dimethoxypyridin-4-yl)-4-(dimethylamino)-2-hydroxy-1-(5-methylthiophen-2-yl)butyl)-2-methoxyquinoline-6-carbonitrile], which MIC is on record?
The MIC was 0.19 µg/mL (≈ 0.357 µM).

Which MIC does the source give for `CCOc1cc(C(O)(CCN(C)C)C(c2cc(OC)nc(OC)c2)c2cc3cc(Br)ccc3nc2OC)cc(OC(C)C)n1` (stereo not shown) [Example 24, 1-(6-Bromo-2-methoxyquinolin-3-yl)-1-(2,6-dimethoxypyridin-4-yl)-4-(dimethylamino)-2-(2-ethoxy-6-isopropoxypyridin-4-yl)butan-2-ol] here?
Its MIC is under 0.02 µg/mL.

For `COc1cc(C(O)(CCN(C)C)C(c2ccccc2)c2cc3cc(I)ccc3nc2OC)cc(OC)n1` (stereo not shown) [Example 42, 2-(2,6-Dimethoxypyridin-4-yl)-4-(dimethylamino)-1-(6-iodo-2-methoxyquinolin-3-yl)-1-phenylbutan-2-ol], which MIC is on record?
The MIC was under 0.02 µg/mL.

How did the MIC turn out when `COc1cc(C(O)(CCN(C)C)C(c2ccc(C)s2)c2cc3cc(Br)ccc3nc2OC)cc(OC)n1` (stereo not shown) [Example 11, 1-(6-Bromo-2-methoxyquinolin-3-yl)-2-(2,6-dimethoxypyridin-4-yl)-4-(dimethylamino)-1-(5-methylthiophen-2-yl)butan-2-ol] was run?
Its MIC is under 0.02 µg/mL.

How did the MIC turn out when `COc1cc(C(O)(CCN(C)C)C(c2cc3cc(Br)ccc3nc2OC)c2ccnc(OC)c2OC)cc(N(C)C)n1` (stereo not shown) [Example 68, 1-(6-Bromo-2-methoxyquinolin-3-yl)-1-(2,3-dimethoxypyridin-4-yl)-4-(dimethylamino)-2-(2-(dimethylamino)-6-methoxypyridin-4-yl)butan-2-ol] was run?
The MIC was 0.01 µg/mL (≈ 0.0156 µM).

Which MIC does the source give for `COc1cc(C(O)(CCN(C)C)C(c2cc3cc(Br)ccc3nc2OC)c2cc(C)sc2C)cc(OC)n1` (stereo not shown) [Example 33, 1-(6-Bromo-2-methoxyquinolin-3-yl)-2-(2,6-dimethoxypyridin-4-yl)-4-(dimethylamino)-1-(2,5-dimethylthiophen-3-yl)butan-2-ol] here?
The MIC was under 0.02 µg/mL.

`COc1cc(C(O)(CCN(C)C)C(c2cc3cc(Br)ccc3nc2OC)c2ccnc(OC)c2OC)cc(OC(C)C)n1` (stereo not shown) [Example 18, 1-(6-Bromo-2-methoxyquinolin-3-yl)-1-(2,3-dimethoxypyridin-4-yl)-4-(dimethylamino)-2-(2-isopropoxy-6-methoxypyridin-4-yl)butan-2-ol] was tested. Which MIC did it give?
Its MIC is under 0.01 µg/mL.

With `COc1cc(C(O)(CCN(C)C)C(c2cc3cc(C#N)ccc3nc2OC)c2cccc(C)c2F)cc(OC(F)F)n1` (stereo not shown) [Example 88, 3-(2-(2-(Difluoromethoxy)-6-methoxypyridin-4-yl)-4-(dimethylamino)-1-(2-fluoro-3-methylphenyl)-2-hydroxybutyl)-2-methoxyquinoline-6-carbonitrile] as the molecule, how does the MIC read?
Its MIC is 0.01 µg/mL (≈ 0.0172 µM).

`COc1cc(C(O)(CCN(C)C)C(c2cc3cc(Br)ccc3nc2OC)c2cccc(C)c2F)cc(OC(F)F)n1` (stereo not shown) [Example 54, 1-(6-Bromo-2-methoxyquinolin-3-yl)-2-(2-(difluoromethoxy)-6-methoxypyridin-4-yl)-4-(dimethylamino)-1-(2-fluoro-3-methylphenyl)butan-2-ol] was tested. Which MIC did it give?
Its MIC is 0.01 µg/mL (≈ 0.0158 µM).

With `CCOc1cc(C(O)(CCN(C)C)C(c2cccc(C)c2)c2cc3cc(Br)ccc3nc2OC)cc(OCC)n1` (stereo not shown) [Example 34, 1-(6-Bromo-2-methoxyquinolin-3-yl)-2-(2,6-diethoxypyridin-4-yl)-4-(dimethylamino)-1-(m-tolyl)butan-2-ol] as the molecule, how does the MIC read?
Its MIC is 0.04 µg/mL (≈ 0.0657 µM).

`COc1cc(C(O)(CCN(C)C)C(c2cccc(C)c2)c2cc3cc(Br)ccc3nc2OC)cc(OC)n1` (stereo not shown) [Example 1, 1-(6-Bromo-2-methoxyquinolin-3-yl)-2-(2,6-dimethoxypyridin-4-yl)-4-(dimethylamino)-1-(m-tolyl)butan-2-ol] was tested. Which MIC did it give?
Its MIC is under 0.02 µg/mL.

How did the MIC turn out when `CCCOc1cc(C(O)(CCN(C)C)C(c2cc3cc(Br)ccc3nc2OC)c2ccnc(OC)c2OC)cc(OC)n1` (stereo not shown) [Example 28, 1-(6-Bromo-2-methoxyquinolin-3-yl)-1-(2,3-dimethoxypyridin-4-yl)-4-(dimethylamino)-2-(2-methoxy-6-propoxypyridin-4-yl)butan-2-ol] was run?
Its MIC is 0.01 µg/mL (≈ 0.0153 µM).

`COc1cc(C(c2cc3cc(C#N)ccc3nc2OC)C(O)(CCN(C)C)c2cccc3ccoc23)cc(OC(C)C)n1` (stereo not shown) [Example 77, 3-(2-(Benzofuran-7-yl)-4-(dimethylamino)-2-hydroxy-1-(2-isopropoxy-6-methoxypyridin-4-yl)butyl)-2-methoxyquinoline-6-carbonitrile] was tested. Which MIC did it give?
The MIC was under 0.02 µg/mL.

Which MIC does the source give for `CCOc1cc(C(O)(CCN(C)C)C(c2cccc(C)c2)c2cc3cc(Cl)ccc3nc2OC)cc(OCC)n1` (stereo not shown) [Example 32, 1-(6-Chloro-2-methoxyquinolin-3-yl)-2-(2,6-diethoxypyridin-4-yl)-4-(dimethylamino)-1-(m-tolyl)butan-2-ol] here?
Its MIC is 0.02 µg/mL (≈ 0.0355 µM).

With `COc1cc(C(O)(CCN(C)C)C(c2cc3cc(C#N)ccc3nc2OC)c2cccc(C)c2F)cc(OC)n1` (stereo not shown) [Example 86, 3-(2-(2,6-Dimethoxypyridin-4-yl)-4-(dimethylamino)-1-(2-fluoro-3-methylphenyl)-2-hydroxybutyl)-2-methoxyquinoline-6-carbonitrile] as the molecule, how does the MIC read?
The MIC was under 0.02 µg/mL.

`COc1nc2ccc(Br)cc2cc1C(c1cccc2c1OCCO2)C(O)(CCN(C)C)c1cc(SC)nc(SC)c1` (stereo not shown) [Example 56, 2-(2,6-Bis(methylthio)pyridin-4-yl)-1-(6-bromo-2-methoxyquinolin-3-yl)-1-(2,3-dihydrobenzo[b][1,4]dioxin-5-yl)-4-(dimethylamino)butan-2-ol] was tested. Which MIC did it give?
The MIC was 0.01 µg/mL (≈ 0.0152 µM).

`CNCCC(O)(c1cc(OC)nc(OC)c1)C(c1cccc(F)c1)c1cc2cc(C#N)ccc2nc1OC` (stereo not shown) [Example 97, 3-(2-(2,6-Dimethoxypyridin-4-yl)-1-(3-fluorophenyl)-2-hydroxy-4-(methylamino)butyl)-2-methoxyquinoline-6-carbonitrile] was tested. Which MIC did it give?
Its MIC is 0.01 µg/mL (≈ 0.0194 µM).

Which MIC does the source give for `COc1cc(C(O)(CCN(C)C)C(c2cc3cc(Br)ccc3nc2OC)c2ccnc(OC)c2OC)cc(OC(F)F)n1` (stereo not shown) [Example 51, 1-(6-Bromo-2-methoxyquinolin-3-yl)-2-(2-(difluoromethoxy)-6-methoxypyridin-4-yl)-1-(2,3-dimethoxypyridin-4-yl)-4-(dimethylamino)butan-2-ol] here?
Its MIC is under 0.004 µg/mL.

How did the MIC turn out when `COc1cc(C(O)(CCN(C)C)C(c2cc3cc(C#N)ccc3nc2OC)c2cccc(OC)c2F)cc(OC(F)F)n1` (stereo not shown) [Example 82, 3-(2-(2-(Difluoromethoxy)-6-methoxypyridin-4-yl)-4-(dimethylamino)-1-(2-fluoro-3-methoxyphenyl)-2-hydroxybutyl)-2-methoxyquinoline-6-carbonitrile] was run?
The MIC was under 0.02 µg/mL.
